{
  "source": "patent US10053485B2",
  "about": "“Cytotoxic agents that preferentially target leukemia inhibitory factor (LIF) for the treatment of malignancies and as new contraceptive agents” (Evestra, Inc., priority 2015, dated 2018)",
  "key": {"CCRF-CEM": {"tested_on": "CCRF-CEM", "assay": "NCI-60 screen, Leukemia panel", "type": "cell-based", "conditions": "Homo sapiens, 48 h"}, "RPMI-8226": {"tested_on": "RPMI-8226", "assay": "NCI-60 screen, Leukemia panel", "type": "cell-based", "conditions": "Homo sapiens, RPMI-8226, 48 h"}, "NCI-H226": {"tested_on": "NCI-H226", "assay": "NCI-60 screen, Non-Small Cell Lung Cancer panel", "type": "cell-based", "conditions": "Homo sapiens, NCI-H226, 48 h, read-out: GI50 (log10GI50) (converted)"}, "NCI-H23": {"tested_on": "NCI-H23", "assay": "NCI-60 screen, Non-Small Cell Lung Cancer panel", "type": "cell-based", "conditions": "Homo sapiens, NCI-H23, 48 h"}, "KM12": {"tested_on": "KM12", "assay": "NCI-60 screen, Colon Cancer panel", "type": "cell-based", "conditions": "Homo sapiens, KM12, 48 h"}, "SW-620": {"tested_on": "SW-620", "assay": "NCI-60 screen, Colon Cancer panel", "type": "cell-based", "conditions": "Homo sapiens, SW-620, 48 h"}, "SF-295": {"tested_on": "SF-295", "assay": "NCI-60 screen, CNS Cancer panel", "type": "cell-based", "conditions": "Homo sapiens, SF-295, 48 h"}, "PC-3": {"tested_on": "PC-3", "assay": "NCI-60 screen, Prostate Cancer panel", "type": "cell-based", "conditions": "Homo sapiens, PC-3, 48 h"}, "A498": {"tested_on": "A498", "assay": "NCI-60 screen, Renal Cancer panel", "type": "cell-based", "conditions": "Homo sapiens, A498, 48 h"}, "MDA-MB-468": {"tested_on": "MDA-MB-468", "assay": "NCI-60 screen, Breast Cancer panel", "type": "cell-based", "conditions": "Homo sapiens, MDA-MB-468, 48 h", "protocol": "EC 330 was also tested using the NCI-60 Screening Methodology. The human tumor cell lines of the cancer screening panel are grown in RPMI 1640 medium containing 5% fetal bovine serum and 2 mM L-glutamine. For a typical screening experiment, cells are inoculated into 96 well microtiter plates in 100 μL at plating densities ranging from 5,000 to 40,000 cells/well depending on the doubling time of individual cell lines. After cell inoculation, the microtiter plates are incubated at 37° C., 5% CO2, 95% air and 100% relative humidity for 24 h prior to addition of experimental drugs. […]\nFollowing drug addition, the plates are incubated for an additional 48 h at 37° C., 5% CO2, 95% air, and 100% relative humidity. […] Bound stain is subsequently solubilized with 10 mM trizma base, and the absorbance is read on an automated plate reader at a wavelength of 515 nm. […] Using the seven absorbance measurements [time zero, (Tz), control growth, (C), and test growth in the presence of drug at the five concentration levels (Ti)], the percentage growth is calculated at each of the drug concentrations levels. Percentage growth inhibition is calculated as: [(Ti−Tz)/(C−Tz)]×100 for concentrations for which Ti>/=Tz [(Ti−Tz)/Tz]×100 for concentrations for which Ti<Tz.\nThree dose response parameters are calculated for each experimental agent. […]"}, "U87-MU (Glioma cells)": {"tested_on": "U87-MU (Glioma cells)", "assay": "Short term (72 h) cytotoxicity assay", "type": "cell-based", "conditions": "Glioma cell"}, "[1]": {"tested_on": "T47D (ER+ PR+ Breast Cancer)", "assay": "Short term (72 h) cytotoxicity assay", "type": "cell-based", "conditions": "Homo sapiens"}, "[2]": {"tested_on": "human endometrial stromal cells (HESC)", "assay": "Decidualization assay, actin cytoskeleton by phalloidin staining", "type": "cell-based", "conditions": "FIG. 3", "protocol": "Decidualization studies: The above compounds were investigated originally for the treatment of endometriosis. The compounds were tested in a decidualization assay using human endometrial stromal fibroblast (HESC) cells. In preparation for the possibility of embryonic attachment, the stromal cells in the endometrium undergo extensive waves of proliferation, remodeling, and terminal differentiation that transforms the endometrium into an endocrine gland, called decidua. This transformation is called decidualization and it is under the control by ovarian hormones.\nThe level of apoptosis increases from the proliferative phase through menstrual cycle and peaks at menses. […] However if the cells are subjected to conditions that induce decidualization, stromal cells will begin to differentiate instead of undergoing apoptosis.\nBriefly, human stromal endometrial cells were plated in the presence and absence of progesterone and allow undergoing decidualization. The cells treated with test compounds of different concentrations and stained for actin cytocketal morphology using phalloidin staining and monitored under fluorescent microscope."}, "[3]": {"tested_on": "SMAD phosphorylation (TGF-beta)", "assay": "Phosphorylation of SMAD", "conditions": "through blocking TGF-beta"}, "[4]": {"conditions": "read-out: GI50 (log10GI50) (converted)"}, "[5]": {"conditions": "read-out: LC50 (log10LC50) (converted)"}},
  "data": [
    {"smiles": "C#CC(F)(F)[C@]1(O)CCC2C3CCC4=CC(=O)CCC4=C3C(c3ccc(C4CC4)cc3)C[C@@]21C", "note": "(stereo partly drawn) [EC330, 17α-(1,1-difluoro-2-propyn-1-yl)-17β-hydroxy-11β-[4-p-(cyclopropyl)phenyl]estra-4,9-dien-3-one]", "values": [
      {"measurement": "GI50", "setting": "CCRF-CEM; [4]", "result": "< 10", "unit": "nM"},
      {"measurement": "CC50", "setting": "CCRF-CEM; [5]", "result": "< 10", "unit": "nM"},
      {"measurement": "GI50", "setting": "RPMI-8226; [4]", "result": 112, "unit": "nM"},
      {"measurement": "CC50", "setting": "RPMI-8226; [5]", "result": "> 100000", "unit": "nM"},
      {"measurement": "GI50", "setting": "NCI-H226", "result": 2630, "unit": "nM"},
      {"measurement": "GI50", "setting": "NCI-H23; [4]", "result": "< 10", "unit": "nM"},
      {"measurement": "CC50", "setting": "NCI-H23; [5]", "result": "> 100000", "unit": "nM"},
      {"measurement": "GI50", "setting": "KM12; [4]", "result": "< 10", "unit": "nM"},
      {"measurement": "CC50", "setting": "KM12; [5]", "result": 44700, "unit": "nM"},
      {"measurement": "GI50", "setting": "SW-620; [4]", "result": 2510, "unit": "nM"},
      {"measurement": "CC50", "setting": "SW-620; [5]", "result": "> 100000", "unit": "nM"},
      {"measurement": "GI50", "setting": "SF-295; [4]", "result": "< 10", "unit": "nM"},
      {"measurement": "CC50", "setting": "SF-295; [5]", "result": "< 10", "unit": "nM"},
      {"measurement": "GI50", "setting": "PC-3; [4]", "result": 513, "unit": "nM"},
      {"measurement": "CC50", "setting": "PC-3; [5]", "result": "> 100000", "unit": "nM"},
      {"measurement": "GI50", "setting": "A498; [4]", "result": 263, "unit": "nM"},
      {"measurement": "CC50", "setting": "A498; [5]", "result": 3890, "unit": "nM"},
      {"measurement": "CC50", "setting": "MDA-MB-468; [5]", "result": 50100, "unit": "nM"},
      {"measurement": "GI50", "setting": "MDA-MB-468; SRB, read-out: GI50 (log10GI50) (converted)", "result": 204, "unit": "nM"},
      {"measurement": "IC50", "setting": "U87-MU (Glioma cells)", "result": 25, "unit": "nM"},
      {"measurement": "IC50", "setting": "[1]", "result": 80, "unit": "nM"},
      {"measurement": "actin / alpha-smooth muscle mediated cytoskeletal disruption of fibroblast", "setting": "[2]", "result": "cytoskeletal disruption"},
      {"measurement": "phosphorylation of SMAD", "setting": "[3]", "result": "indirectly diminish the phosphorylation of SMAD"}
    ]}
  ]
}
